Patent US11655244B2, “Carbazole compounds and methods of use thereof” (GSNO Therapeutics, Inc, priority 2017, dated 2023)

Columns and labels:
GSNOR enzyme [1] = target: T1, GSNOR enzyme (Homo sapiens, UniProt P11766); test: GSNOR inhibition assay (rate of NADH consumption, 340 nm absorbance); format: biochemical; conditions: Table 2b; read-out: IC50 Micromolar
IL-6 = test: LPS/cytokine assay (mouse inflammation assay), IL-6; format: in vivo, CD-1 male mice; conditions: CD-1 male mice; IP or IV; cytokine typically 6 hrs after LPS
Description: Table 2b also includes additional biological data of compounds described herein. The LPS/cytokine Assay was carried out in CD-1 male mice. The assay measured the level of various cytokines, including IL-6, IL-17, and IL-23, after induction by bacterial liposaccharide (LPS). Compounds were dosed by IP or IV routes of administration at varying times before and after LPS and the cytokine concentrations were measured at varying times, typically 6 hrs, after LPS by standard methods using ELISA kits.
BIOLOGICAL TESTING: Compounds 10 and 17 from Table 1 were tested in a mouse inflammation assay. Briefly, CD-1 mice were dosed with compound, 12 hrs before injecting mice I.P. with the potent cytokine inducer, bacterial lipopolysaccharide (LPS). The mice were euthanized 6 hrs after the LPS was injected and their serum prepared by standard methods. The concentration of IL-6 in the serum of each experimental animal was measured using an IL-6 ELISA kit from Enzo. The compounds tested were active.
This LPS/cytokine assay was carried out in healthy mice and measured the level of cytokine IL-6, IL-17, and 23 induction by LPS. Compounds are dosed (either orally (“p.o.”) or intravenously (“i.v.”) at varying times before and after LPS, and the cytokines are measured at varying times after LPS. The effect of the tested compounds (Table 5) on IL-6 release is shown in FIG. 7. The effect of the tested compounds (Table 6) on IL-17 an IL-23 release is shown in FIG. 11 and FIG. 12, respectively.

GSNOR enzyme [2] = target: T1, GSNOR enzyme; test: GSNOR inhibition assay (rate of NADH consumption, 340 nm absorbance); format: biochemical; conditions: Table 2b; test compound 20 uM; read-out: % GSNOR Inhibition at 20 uM
Description: The following compounds were also prepared based on the methods described herein, using the appropriate starting materials. Table 2a and Table 2b also provides the % GSNOR inhibition at 20 μM of compounds described herein. […] The buffer was 100 mM phosphate buffer (pH 7.4.) The rate of NADH consumption for each well was determined by ultraviolet spectroscopy. Plates were read on a Molecular Devices Spectra Max UV/Visible Spectrophotometer/plate reader and the change in 340 nm absorbance at 25° C. was recorded for each well at 10 sec intervals over the duration of the recording period (2˜5 minutes). The rate was measured from the linear portion of the curve. Final test compound concentration was 20 μM. The mean % inhibition from 3 test compound wells and 5 control wells was measured as the percentage of the mean no compound+enzyme−the mean no enzyme, no compound control.

[3] = tested on: Bleomycin-induced idiopathic pulmonary fibrosis model in male C57BL/6 mice; test: Bleomycin-induced idiopathic pulmonary fibrosis model; format: in vivo; conditions: 100 mg/kg, p.o., b.i.d., from day 14 to 28
Description: Compound 17 was made-up fresh every 4 days. A required amount of the test compound was weighed in a glass vial and the purity factor was calculated. A stock solution of 1 mg/ml (10 mg/kg) was made in distilled water (pH 8) and the subsequent 3 and 1 mg/kg doses (concentrations) were obtained by serial dilution of the 1 mg/ml stock solution. A clear and transparent solution was observed. Animals were dosed with Compound 17 at 1 mg/kg, 3 mg/kg and 10 mg/kg, i.p (intraperitoneal), once daily from day 14 to 28.
Pirfenidone was weighed in a glass vial and suspended in 0.5% methyl cellulose to obtain a 10 mg/ml formulation. A clear homogenous suspension was observed. Animals were dosed with Pirfenidone at 100 mg/kg, p.o., b.i.d., from day 14 to 28.

T1 sequence (P11766 whole entry): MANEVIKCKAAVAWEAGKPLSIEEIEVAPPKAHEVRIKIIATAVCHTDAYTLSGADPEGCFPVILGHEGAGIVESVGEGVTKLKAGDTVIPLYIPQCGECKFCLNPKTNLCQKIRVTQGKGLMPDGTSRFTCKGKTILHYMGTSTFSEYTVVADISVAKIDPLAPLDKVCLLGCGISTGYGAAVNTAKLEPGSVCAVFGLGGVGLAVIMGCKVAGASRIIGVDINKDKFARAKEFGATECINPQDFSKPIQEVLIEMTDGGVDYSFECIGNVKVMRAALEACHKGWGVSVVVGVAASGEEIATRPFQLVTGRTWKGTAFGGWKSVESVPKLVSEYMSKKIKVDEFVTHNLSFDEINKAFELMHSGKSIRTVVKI

IC50 (GSNOR enzyme [1]) [nM]	inhibition at 20 µM (GSNOR enzyme [2]) [%]	Compound	LPS/IL6 Lowest tested active (IL-6) [mg/kg]	pulmonary fibrosis (Ashcroft score and percentage collagen proportionate area) vs disease control [3]
< 1000	92.9	N#CCCCCn1c2ccc(-n3ccnc3)cc2c2ccc(CCC(=O)O)cc21 [Compound 31]	0.3	–
–	–	Cc1ccc(=O)n(-c2ccccc2)c1 [Pirfenidone, reference compound]	–	notable mitigation of pulmonary fibrosis
